Columns and labels:
Assay type in all cases: in vivo, mice
[1] = tested on: explanted fat grafts (Tie2/LacZ donor, wild type FVB recipient); experiment: Quantitative PCR of 2-day old explanted fat grafts after sildenafil pretreatment of donor tissue; details: qPCR
Protocol: (§1) To examine the effect of PDE5 inhibitor pretreatment of donor graft tissue on graft take and survival, transfer of syngeneic fat between Tie2/LacZ mice (donor) and wild type FVB mice (recipient) was performed. A schematic representation of the protocol is depicted in FIG. 1A. Since the transgenic mice express the lacZ gene in their blood vessels, donor and recipient vasculature can be independently visualized and assessed based on the presence or absence of lacZ gene expression.
Prior to harvesting the inguinal fat pads from 6-12 week old transgenic FVB Tie2/LacZ mice, the pads were infiltrated with small volumes of PBS (control) and 35 nM sildenafil citrate in PBS and allowed to dwell for 15-20 minutes. The pads were harvested, washed in PBS, and finely minced to simulate conditions of human harvest. The minced fat was centrifuged at 3000 rpm for 3 minutes and the aqueous and oil layers removed leaving the adipose layer for injection. The dorsum of syngeneic wildtype FVB mice was used as the recipient bed for the processed lipoaspirate, as previously described (Sultan et al., “Human Fat Grafting Alleviates Radiation Skin Damage in a Murine Model,” Plast Reconstr Surg 128:363-72 (2011) and Thanik et al., “A Murine Model for Studying Diffusely Injected Human Fat,” Plast Reconstr Surg 124:74-81 (2009), which are hereby incorporated by reference in their entirety). Autologous fat was infiltrated using a blunt tip cannula through a 2-mm caudal midline incision. The infiltration cannula was advanced and withdrawn in a fan like pattern in the dorsal subdermal plane of the mouse, to maintain an even layer over the entire dorsal surface.

fat grafts [2] = experiment: Graft volume maintenance and graft survival analysis after fat transfer
Protocol: as §1
(§2) Prior to harvesting the inguinal fat pads from 6-12 week old transgenic FVB Tie2/LacZ mice, the pads were infiltrated with small volumes of PBS (control) and 35 nM sildenafil citrate in PBS and allowed to dwell for 15-20 minutes. The pads were harvested, washed in PBS, and finely minced to simulate conditions of human harvest. The minced fat was centrifuged at 3000 rpm for 3 minutes and the aqueous and oil layers removed leaving the adipose layer for injection. The dorsum of syngeneic wildtype FVB mice was used as the recipient bed for the processed lipoaspirate, as previously described (Sultan et al., “Human Fat Grafting Alleviates Radiation Skin Damage in a Murine Model,” Plast Reconstr Surg 128:363-72 (2011) and Thanik et al., “A Murine Model for Studying Diffusely Injected Human Fat,” Plast Reconstr Surg 124:74-81 (2009), which are hereby incorporated by reference in their entirety). […]

fat grafts [3] = experiment: Vascular flux (Doppler) in grafted fat tissue after transplantation
Protocol: as §1, §2

fat grafts [4] = experiment: Graft weight retention of explanted fat grafts; details: 8 weeks post transplant
Protocol: as §1, §2

[5] = 2-day old explanted grafts, 35 nM sildenafil citrate pretreatment vs PBS/saline control
[6] = explanted tissue, sildenafil pretreatment vs saline control

## CCCc1nn(C)c2c(=O)nc(-c3cc(S(=O)(=O)N4CCN(C)CC4)ccc3OCC)[nH]c12 [sildenafil, 5-{2-Ethoxy-5-[(4-methyl-1-piperazinyl)sulfonyl]phenyl}-1-methyl-3-propyl-1,4-dihydro-7H-pyrazolo[4,3-d]pyrimidin-7-one 2-hydroxy-1,2,3-propanetricarboxylate (1:1)]
[1]; [5]
  LacZ expression (donor-derived endothelial cell function/viability): increased
  PECAM-1 expression (donor-derived endothelial cell function/viability): increased
[1]; [6]
  expression of the inflammatory gene SDF-1α: decreased
  expression of the inflammatory gene VCAM: decreased
Fat grafts [2]; over 12 weeks after transfer, vs saline treated grafts, which are resorbed quickly
  graft tissue volume after transfer: maintained virtually all of its volume over time
Fat grafts [2]; survival analysis vs saline-treated control grafts and devascularized (trypsin-inactivated) grafts
  graft survival: survive significantly longer
Fat grafts [3]; 1 and 2 weeks post grafting, vs control
  revascularization within the core of the graft: significant improvement in revascularization
Fat grafts [3]; first two weeks following transplantation, vs saline control
  restoration of blood flow within the grafted tissues (vascular flux): faster restoration of blood flow
Fat grafts [4]
  enhanced graft retention (percent graft weight retention) compared to saline treated grafts: > 2 fold
